From US5358712A, “Radiopharmaceutical agents for the detection of Alzheimer's disease” (Regents of the University of Minnesota, priority 1993, dated 1994)
Values belong to the compound of their own block, whether it stands above or below them.

Tests used:
vesamicol receptor = test: Blocking experiments: inhibition of radiotracer accumulation in the rat by coadministered compound; assay type: in vivo, rat (male Wistar); details: rat; for Brain: Blood Ratio / Heart: Blood Ratio / radioactivity in blood / radioactivity in brain / radioactivity in heart / radioactivity in kidney / radioactivity in liver / radioactivity in lung / radioactivity in muscle / radioactivity in spleen: iv, 60 min
Method: *Animals in group 1 received an iv injection of (+)4-[^125 l]HIPP
only. For groups 2, 3, and 4, the radiotracer was coadministered with the
hydrochlorides of (+)7 (0.53 mg/kg), (-)7 (0.53 mg/kg) and vesamicol (0.3
Four groups of male Wistar rats (n=3) were used in these experiments. All animals received an iv dose of 8-10 μCi of the radiotracer in 0.1 ml of 50% aq. ethanol. Additionally, in groups 2, 3 and 4, the radiotracer was coadministered with (+)-HBrPP.HCl(1.3 μmol/kg), (-)-HBrPP.HCl(1.3 μmol/kg) and (dl)-vesamicol hydrochloride (1.1 μmol/kg), respectively. At 60 min. post-injection, blood was collected by cardiac puncture and the animals sacrificed as described above. The data was analyzed as outlined above.
NOTE: The dose of radiotracer injected was 5-7 mCi. Group I was the
control, injected with the radiotracer only. Group II included the
simultaneous injection of "cold"(dl)3-HIPP (HCl) (0.53 mg/kg). Group III
included the simultaneous injection of (dl) vesamicol (HCl) (0.31 mg/kg).
All rats were sacrificed at one hour postinjection.
NOTE: Group I was the control, injected with the radiotracer only. Group
II included the simultaneous injection of "cold"(dl)3-HIPP (HCl) (0.53
mg/kg). Group III included the simultaneous injection of (dl) vesamicol
hydrochloride (0.31 mg/kg). The dose of radiotracer was 8-9 μCi. All
rats were sacrificed at one hour postinjection.
NOTE: Group I received (+)[^125 l]13 only. Group II received the (+)
radiotracer coinjected with 0.31 mg/kg (dl)vesamicol hydrochloride. Group
III received (-)[^125 l]13 only. Group IV received the (-) radiotrace
coinjected with 0.31 mg/kg (dl)vesamicol hydrochloride. All animals were
sacrificed at one hour postinjection. The dose of radiotracer injected pe

[1] = Tissue distribution (biodistribution) of radioiodinated compound in the rat; details: rat; for Brain: Blood Ratio / Heart: Blood Ratio / radioactivity in brain / radioactivity in blood / radioactivity in heart / radioactivity in kidney / radioactivity in liver / radioactivity in lung / radioactivity in muscle / radioactivity in spleen / tissue uptake at 5 min / tissue uptake at 0.5 h / tissue uptake at 1 h / tissue uptake at 3 h: iv; for tissue uptake at 0.5 h: 30 min
[2] = + (dl)-vesamicol HCl 0.3 (Table 3) or 0.31 mg/kg
[3] = + cold (dl)3-HIPP HCl 0.53 mg/kg

- effect of coadministered vesamicol on accumulation (in words) (vesamicol receptor): inhibited
- Brain: Blood Ratio (vesamicol receptor; [2]): 2.14
- Heart: Blood Ratio (vesamicol receptor; [2]): 1.10
- Brain: Blood Ratio (vesamicol receptor; [3]): 1.92
- Heart: Blood Ratio (vesamicol receptor; [3]): 1.16
- Brain: Blood Ratio (vesamicol receptor; radiotracer only (control)): 8.49
- Heart: Blood Ratio (vesamicol receptor; radiotracer only (control)): 3.96
- decrease of concentration in the brain ([1]; 1 hour post-injection vs initial, listed as (+)-[^125 I]12): 20%
- decrease of concentration in the brain ([1]; 3 hours post-injection vs initial, listed as (+)-[^125 I]12): 54%
- initial accumulation in the rat brain ([1]; listed as (+)-[^125 I]12): 2.08 % of the injected dose
- Brain: Blood Ratio ([1]; 5 min): 13.1
- Heart: Blood Ratio ([1]; 5 min): 16.4
- Brain: Blood Ratio ([1]; 60 min): 9.2
- Heart: Blood Ratio ([1]; 60 min): 4.2
- Brain: Blood Ratio ([1]; 180 min): 7.2
- Heart: Blood Ratio ([1]; 180 min): 2.1
- radioactivity in brain ([1]; 180 min): 0.56 % dose/g
SMILES: OC(Cc1cccc([125I])c1)CN1CCC(c2ccccc2)CC1 (single isomer, unassigned; (+)) [(+)-[^125 l]12] [2-Hydroxyl-3-(3-iodophenyl)-1-[1-(4-phenylpiperidinyl)]propane]

- effect of coadministered vesamicol on accumulation (in words) (vesamicol receptor): inhibited
- Brain: Blood Ratio (vesamicol receptor; [2]): 1.40
- Heart: Blood Ratio (vesamicol receptor; [2]): 0.95
- radioactivity in blood (vesamicol receptor; [2]): 0.14 % dose/g of tissue
- radioactivity in brain (vesamicol receptor; [2]): 0.20 % dose/g of tissue
- radioactivity in heart (vesamicol receptor; [2]): 0.14 % dose/g of tissue
- radioactivity in kidney (vesamicol receptor; [2]): 0.46 % dose/g of tissue
- radioactivity in liver (vesamicol receptor; [2]): 0.81 % dose/g of tissue
- radioactivity in lung (vesamicol receptor; [2]): 0.73 % dose/g of tissue
- radioactivity in muscle (vesamicol receptor; [2]): 0.13 % dose/g of tissue
- radioactivity in spleen (vesamicol receptor; [2]): 0.50 % dose/g of tissue
- radioactivity in blood (vesamicol receptor; [3]): 0.13 % dose/g of tissue
- Brain: Blood Ratio (vesamicol receptor; [3]): 1.19
- Heart: Blood Ratio (vesamicol receptor; [3]): 0.87
- radioactivity in brain (vesamicol receptor; [3]): 0.15 % dose/g of tissue
- radioactivity in heart (vesamicol receptor; [3]): 0.11 % dose/g of tissue
- radioactivity in kidney (vesamicol receptor; [3]): 0.46 % dose/g of tissue
- radioactivity in liver (vesamicol receptor; [3]): 0.63 % dose/g of tissue
- radioactivity in lung (vesamicol receptor; [3]): 0.57 % dose/g of tissue
- radioactivity in muscle (vesamicol receptor; [3]): 0.10 % dose/g of tissue
- radioactivity in spleen (vesamicol receptor; [3]): 0.36 % dose/g of tissue
- Brain: Blood Ratio (vesamicol receptor; radiotracer only (control)): 5.08
- Heart: Blood Ratio (vesamicol receptor; radiotracer only (control)): 1.57
- radioactivity in blood (vesamicol receptor; radiotracer only (control)): 0.13 % dose/g of tissue
- radioactivity in brain (vesamicol receptor; radiotracer only (control)): 0.64 % dose/g of tissue
- radioactivity in heart (vesamicol receptor; radiotracer only (control)): 0.20 % dose/g of tissue
- radioactivity in kidney (vesamicol receptor; radiotracer only (control)): 0.98 % dose/g of tissue
- radioactivity in liver (vesamicol receptor; radiotracer only (control)): 0.86 % dose/g of tissue
- radioactivity in lung (vesamicol receptor; radiotracer only (control)): 0.92 % dose/g of tissue
- radioactivity in muscle (vesamicol receptor; radiotracer only (control)): 0.15 % dose/g of tissue
- radioactivity in spleen (vesamicol receptor; radiotracer only (control)): 0.83 % dose/g of tissue
- decrease of concentration in the brain ([1]; 1 hour post-injection vs initial, listed as (-)-[^125 I]12): 43%
- decrease of concentration in the brain ([1]; 3 hours post-injection vs initial, listed as (-)-[^125 I]12): 74%
- initial accumulation in the rat brain ([1]; listed as (-)-[^125 I]12): 1.86 % of the injected dose
- Brain: Blood Ratio ([1]; 5 min): 9.0
- Heart: Blood Ratio ([1]; 5 min): 11.4
- radioactivity in blood ([1]; 5 min): 0.11 % dose/g
- radioactivity in brain ([1]; 5 min): 0.98 % dose/g
- radioactivity in heart ([1]; 5 min): 1.26 % dose/g
- radioactivity in kidney ([1]; 5 min): 2.46 % dose/g
- radioactivity in liver ([1]; 5 min): 1.41 % dose/g
- radioactivity in lung ([1]; 5 min): 8.94 % dose/g
- radioactivity in muscle ([1]; 5 min): 0.36 % dose/g
- radioactivity in spleen ([1]; 5 min): 0.66 % dose/g
- Brain: Blood Ratio ([1]; 60 min): 5.1
- Heart: Blood Ratio ([1]; 60 min): 1.9
- radioactivity in blood ([1]; 60 min): 0.11 % dose/g
- radioactivity in brain ([1]; 60 min): 0.56 % dose/g
- radioactivity in heart ([1]; 60 min): 0.21 % dose/g
- radioactivity in kidney ([1]; 60 min): 1.00 % dose/g
- radioactivity in liver ([1]; 60 min): 1.04 % dose/g
- radioactivity in lung ([1]; 60 min): 1.04 % dose/g
- radioactivity in muscle ([1]; 60 min): 0.14 % dose/g
- radioactivity in spleen ([1]; 60 min): 0.95 % dose/g
- Brain: Blood Ratio ([1]; 180 min): 2.6
- Heart: Blood Ratio ([1]; 180 min): 0.9
- radioactivity in blood ([1]; 180 min): 0.11 % dose/g
- radioactivity in brain ([1]; 180 min): 0.27 % dose/g
- radioactivity in heart ([1]; 180 min): 0.10 % dose/g
- radioactivity in kidney ([1]; 180 min): 0.59 % dose/g
- radioactivity in liver ([1]; 180 min): 0.79 % dose/g
- radioactivity in lung ([1]; 180 min): 0.46 % dose/g
- radioactivity in muscle ([1]; 180 min): 0.08 % dose/g
- radioactivity in spleen ([1]; 180 min): 0.44 % dose/g
SMILES: OC(Cc1cccc([125I])c1)CN1CCC(c2ccccc2)CC1 (single isomer, unassigned; (-)) [(-)-[^125 l]12] [2-Hydroxyl-3-(3-iodophenyl)-1-[1-(4-phenylpiperidinyl)]propane]

SMILES: OC(Cc1ccc([125I])cc1)CN1CCC(c2ccccc2)CC1 (single isomer, unassigned; (+)) [(+)-4-[^125 l]HIPP, 2-Hydroxy-3-(4-iodophenyl)-1-(4-phenylpiperidyl)propane]
- tissue uptake at 5 min ([1]; blood, radioactivity in blood, 5 min): 0.08 %ID/g
- tissue uptake at 0.5 h ([1]; blood, radioactivity in blood): 0.04 %ID/g
- tissue uptake at 1 h ([1]; blood, radioactivity in blood, 60 min): 0.03 %ID/g
- tissue uptake at 5 min ([1]; brain, radioactivity in brain, 5 min): 1.2 %ID/g
- tissue uptake at 0.5 h ([1]; brain, radioactivity in brain): 1.22 %ID/g
- tissue uptake at 1 h ([1]; brain, radioactivity in brain, 60 min): 1.23 %ID/g
- tissue uptake at 3 h ([1]; brain, radioactivity in brain, 180 min): 1.35 %ID/g
- tissue uptake at 5 min ([1]; heart, radioactivity in heart, 5 min): 1.8 %ID/g
- tissue uptake at 0.5 h ([1]; heart, radioactivity in heart): 1.23 %ID/g
- tissue uptake at 1 h ([1]; heart, radioactivity in heart, 60 min): 1.12 %ID/g
- tissue uptake at 3 h ([1]; heart, radioactivity in heart, 180 min): 0.84 %ID/g
- tissue uptake at 5 min ([1]; kidney, radioactivity in kidney, 5 min): 2.84 %ID/g
- tissue uptake at 0.5 h ([1]; kidney, radioactivity in kidney): 2.42 %ID/g
- tissue uptake at 1 h ([1]; kidney, radioactivity in kidney, 60 min): 2.3 %ID/g
- tissue uptake at 3 h ([1]; kidney, radioactivity in kidney, 180 min): 1.81 %ID/g
- tissue uptake at 5 min ([1]; liver, radioactivity in liver, 5 min): 1.58 %ID/g
- tissue uptake at 0.5 h ([1]; liver, radioactivity in liver): 2.55 %ID/g
- tissue uptake at 1 h ([1]; liver, radioactivity in liver, 60 min): 2.43 %ID/g
- tissue uptake at 3 h ([1]; liver, radioactivity in liver, 180 min): 2.38 %ID/g
- tissue uptake at 5 min ([1]; lung, radioactivity in lung, 5 min): 11.5 %ID/g
- tissue uptake at 0.5 h ([1]; lung, radioactivity in lung): 5.59 %ID/g
- tissue uptake at 1 h ([1]; lung, radioactivity in lung, 60 min): 4.75 %ID/g
- tissue uptake at 3 h ([1]; lung, radioactivity in lung, 180 min): 3.74 %ID/g
- tissue uptake at 5 min ([1]; muscle, radioactivity in muscle, 5 min): 0.24 %ID/g
- tissue uptake at 0.5 h ([1]; muscle, radioactivity in muscle): 0.25 %ID/g
- tissue uptake at 1 h ([1]; muscle, radioactivity in muscle, 60 min): 0.19 %ID/g
- tissue uptake at 3 h ([1]; muscle, radioactivity in muscle, 180 min): 0.24 %ID/g
- tissue uptake at 5 min ([1]; spleen, radioactivity in spleen, 5 min): 0.71 %ID/g
- tissue uptake at 0.5 h ([1]; spleen, radioactivity in spleen): 1.28 %ID/g
- tissue uptake at 1 h ([1]; spleen, radioactivity in spleen, 60 min): 1.23 %ID/g
- tissue uptake at 3 h ([1]; spleen, radioactivity in spleen, 180 min): 1.39 %ID/g
